{
  "source": "patent US8334298B2",
  "about": "“Treatment or prevention of ovarian hyperstimulation syndrome (OHSS) using a dopamine agonist” (Ferring International Center S.A., priority 2005, dated 2012)",
  "key": {"[1]": {"system": "OHSS rats", "assay": "Dose response of quinagolide on vascular permeability in OHSS rats (Example 4)", "assay_type": "in vivo, Wistar rats", "details": "single rat, 48-56 h after hCG", "procedure": "(§1) Inducing OHSS manifestations. A total of 96 female immature Wistar rats (Harlan Iberica, Sant Feliu de Codina, Barcelona, SPAIN), weighing from 42-48 grams at the beginning of these experiments (day 22), were used to carry out the studies disclosed in Examples 4 and 5. They were injected subcutaneously (s.c) with 10 IU of Pregnant Mare's Serum Gonadotropin (PMSG) (Sigma) for 4 consecutive days (days 22-25), followed by administered intraperitoneally (i.p.) with 30 IU of hCG on the fifth day (day 26) in order to induce OHSS clinical manifestations.\n(§2) Measuring vascular permeability (VP). VP was used as an index to estimate and compare the degree of development of the illness. VP was measured in all animals 48-56 hours after hCG administration, following methodology previously described (Gomez et al., supra). Briefly, 0.2 ml Evans Blue dye, 0.05 M, was injected through the femoral vein. After 30 minutes, the peritoneal cavity was irrigated with 5 ml saline, pH 6, 22° C., and massaged for 30 seconds to recover extravasated dye. The peritoneal fluid was recovered in 13 ml tubes containing 0.1 ml NaOH. The tubes were centrifuged at 900×g for 12 minutes to avoid protein interference. The supernatant was filtered through 0.22 um filters in order to eliminate ascitic protein/fibrin mucus which could interfere in the posterior measurements. Finally the absorbance of the extravasated dye was measured at 595 nm using a spectrophotometer. Average and average deviations in each group (see below) were calculated. VP was expressed as μg extravasated Evans Blue dye/100 g body weight in each animal.\nA total of 70 rats were used for this study. All 70 rats were administered PMSG/hCG to induce OHSS symptoms, as described above. Quinagolide (batch no. 1010003004; supplied by Ferring Labs) was administered to 56 rats. The 56 rats that received quinagolide were used as a dose response test group. […] Cabergoline (Dostinex®) was administered to 6 rats as a positive control. The specific details of the dosing regimen for each group is as follows:\nVehicle control group (quinagolide 0 μg/kg) (n=8). Eight rats were implanted with prolactin placebo pellets, 5 days release, between 10:00 to 11:00 on day 26, just following hCG injection (see General Procedures, above). Six hours after pellet implantation, the rats in this group were orally administered vehicle solution (1:6 alcohol in water mixture) (without quinagolide). They received another oral vehicle administration of vehicle solution 24 hours later. Experimental groups (quinagolide at 0.1, 0.3, 1, 3, 10, 25, 50 μg/kg/day to 7 test groups of rats) (n=8 in each test group). The rats in these groups were implanted with prolactin pellets, 5 days release, between 10:00 to 11:00 on day 26, just following hCG injection (see General Procedures, above). […] In this manner, the desired 0.1, 0.3, 1, 3, 10, 25, 50 μg/kg doses to be assayed were achieved. Twenty four hours later, the rats in this group were administered with another dose of the same amounts of quinagolide. Positive (cabergoline) control group (n=6). These six rats were implanted with prolactin pellets, 5 days release, between 10:00 to 11:00 .m on day 26, just following hCG injection. […] Twenty four hours later, the rats in this group were administered with another dose of the same amount of cabergoline. […] Reconstitution and dilution process to reach appropriate quinagolide doses for oral administration. Appropriate doses were prepared fresh just prior to being administered (on day 26). A single quinagolide vial, containing approximately 2.30-2.30 mg quinagolide, was employed for each single set of animals. For each solution, approximately 2.30-2.30 mg quinagolide was diluted in a vehicle solution (1:6 alcohol:water mixture) to achieve a stock concentration of 100 μg quinagolide per ml solution. […]"}, "[2]": {"system": "OHSS rats", "assay": "Dose response of quinagolide on vascular permeability in OHSS rats, reassessment (Example 5)", "assay_type": "in vivo, Wistar rats", "details": "single rat", "procedure": "as §1, §2\nFor Example 5, three quinagolide doses were tested: 5, […] 250 μg/kg/day. The 250 μg/kg/day dose was tested in order to determine if the maximal potential inhibitory effect of quinagolide had been reached in Example 4.\nA total of 26 rats were used for this study. All 26 rats were administered PMSG/hCG to induce OHSS symptoms, as described above. Quinagolide was administered to 18 rats, divided into three groups of six rats per group. The 18 rats that received quinagolide were used as a dose response test group. […] A positive control group was not employed for this Example. The specific details of the dosing regimen for each group is as follows:\nVehicle control group (quinagolide 0 μg/kg) (n=8). Eight rats were implanted with prolactin placebo pellets, 5 days release, between 10:00 to 11:00 on day 26, just following hCG injection (see General Procedures, above). Six hours after prolactin placebo pellet implantation, the rats in this group were orally administered vehicle solution (1:6 alcohol:water mixture) (without quinagolide). They received another oral administration of vehicle solution 24 hours later. Experimental groups (quinagolide at 5, 62.5, 250 μg/kg/day to 3 test groups of rats) (n=6 in each test group). These rats were implanted with prolactin pellets, 5 days release, between 10:00 to 11:00 am on day 26, just following hCG injection (see General Procedures, above). […] In this manner, the desired 5, 62.5, and 250 μg/kg doses to be assayed were achieved. Twenty four hours later, the rats in this group were administered with another dose of the same amounts of quinagolide. Reconstitution and dilution process to reach appropriate quinagolide doses for oral administration. A commercial drug, Norprolac®, was used as the source of quinagolide for this Example. Four Norprolac® pills, containing 150 μg quinagolide each (600 μg quinagolide total) were diluted in 6250 μl of distilled water. A volume of 1250 μl of alcohol was added to reach a vehicle solution (1:6 alcohol:water mixture) containing 80 μg quinagolide per ml solution. A 1.5 ml aliquot was serially diluted (1:4, 1:12.5) in the same vehicle solution. A 250 μl oral administration of each quinagolide solution was given to the appropriate rat in each group on the same day hCG was administered (day 26), as described. […]"}, "[3]": {"details": "quinagolide 5 μg/kg/day oral (Norprolac pills)"}, "[4]": {"details": "quinagolide 250 μg/kg/day oral (Norprolac pills)"}, "[5]": {"details": "quinagolide 62. μg/kg/day oral (Norprolac pills)"}},
  "note": "Where “and” joins values, the source holds several entries; their conditions need not be identical. Identical values can stand only once.",
  "data": [
    {"smiles": "CCCN1CC(NS(=O)(=O)N(CC)CC)CC2Cc3c(O)cccc3CC21", "note": "(stereo not drawn) [Quinagolide, quinagolide]", "values": [
      {"measurement": "Absorbance at 595 nm", "setting": "[1]; quinagolide 0.1 μg/kg/day oral", "value": "0.081 and 0.646 and 0.338 and 0.35"},
      {"measurement": "μg EB per 100 g body weight", "setting": "[1]; quinagolide 0.1 μg/kg/day oral", "value": "4.871 μg EB per 100 g body weight and 37.81 μg EB per 100 g body weight and 21.05 μg EB per 100 g body weight and 21.19 μg EB per 100 g body weight"},
      {"measurement": "μg Evans Blue (Abs * 4360)", "setting": "[1]; quinagolide 0.1 μg/kg/day oral", "value": "353.16 µg and 2816.56 µg and 1473.68 µg and 1526 µg"},
      {"measurement": "Absorbance at 595 nm", "setting": "[1]; quinagolide 0.3 μg/kg/day oral", "value": "0.28 and 0.547 and 0.768 and 0.342 and 0.444"},
      {"measurement": "μg EB per 100 g body weight", "setting": "[1]; quinagolide 0.3 μg/kg/day oral", "value": "16.96 μg EB per 100 g body weight and 36.69 μg EB per 100 g body weight and 47.84 μg EB per 100 g body weight and 20.57 μg EB per 100 g body weight and 25.8112 μg EB per 100 g body weight"},
      {"measurement": "μg Evans Blue (Abs * 4360)", "setting": "[1]; quinagolide 0.3 μg/kg/day oral", "value": "1220.8 µg and 2384.92 µg and 3348.48 µg and 1491.12 µg and 1935.84 µg"},
      {"measurement": "Absorbance at 595 nm", "setting": "[1]; quinagolide 1 μg/kg/day oral", "value": "0.396 and 0.341 and 0.389 and 0.424 and 0.256 and 0.205"},
      {"measurement": "μg EB per 100 g body weight", "setting": "[1]; quinagolide 1 μg/kg/day oral", "value": "27.85 μg EB per 100 g body weight and 22.53 μg EB per 100 g body weight and 22.32 μg EB per 100 g body weight and 26.41 μg EB per 100 g body weight and 14.31 μg EB per 100 g body weight and 12.33 μg EB per 100 g body weight"},
      {"measurement": "μg Evans Blue (Abs * 4360)", "setting": "[1]; quinagolide 1 μg/kg/day oral", "value": "1726.56 µg and 1486.76 µg and 1696.04 µg and 1848.64 µg and 1116.16 µg and 893.8 µg"},
      {"measurement": "Absorbance at 595 nm", "setting": "[1]; quinagolide 3 μg/kg/day oral", "value": "0.09 and 0.394 and 0.181 and 0.584 and 0.369 and 0.581"},
      {"measurement": "μg EB per 100 g body weight", "setting": "[1]; quinagolide 3 μg/kg/day oral", "value": "5.945 μg EB per 100 g body weight and 26.84 μg EB per 100 g body weight and 9.927 μg EB per 100 g body weight and 37.17 μg EB per 100 g body weight and 23.32 μg EB per 100 g body weight and 31.08 μg EB per 100 g body weight"},
      {"measurement": "μg Evans Blue (Abs * 4360)", "setting": "[1]; quinagolide 3 μg/kg/day oral", "value": "392.4 µg and 1717.84 µg and 789.16 µg and 2546.24 µg and 1608.84 µg and 2533.16 µg"},
      {"measurement": "Absorbance at 595 nm", "setting": "[1]; quinagolide 10 μg/kg/day oral", "value": "0.418 and 0.145 and 0.188 and 0.328 and 0.626"},
      {"measurement": "μg EB per 100 g body weight", "setting": "[1]; quinagolide 10 μg/kg/day oral", "value": "24.63 μg EB per 100 g body weight and 8.543 μg EB per 100 g body weight and 12.42 μg EB per 100 g body weight and 19.73 μg EB per 100 g body weight and 37.39 μg EB per 100 g body weight"},
      {"measurement": "μg Evans Blue (Abs * 4360)", "setting": "[1]; quinagolide 10 μg/kg/day oral", "value": "1822.48 µg and 632.2 µg and 819.68 µg and 1430.08 µg and 2729.36 µg"},
      {"measurement": "Absorbance at 595 nm", "setting": "[1]; quinagolide 25 μg/kg/day oral", "value": "0.299 and 0.311 and 0.042 and 0.669 and 0.08"},
      {"measurement": "μg EB per 100 g body weight", "setting": "[1]; quinagolide 25 μg/kg/day oral", "value": "19.17 μg EB per 100 g body weight and 19.23 μg EB per 100 g body weight and 2.654 μg EB per 100 g body weight and 40.51 μg EB per 100 g body weight and 4.501 μg EB per 100 g body weight"},
      {"measurement": "μg Evans Blue (Abs * 4360)", "setting": "[1]; quinagolide 25 μg/kg/day oral", "value": "1303.64 µg and 1355.96 µg and 183.12 µg and 2916.84 µg and 348.8 µg"},
      {"measurement": "Absorbance at 595 nm", "setting": "[1]; quinagolide 50 μg/kg/day oral", "value": "0.179 and 0.048 and 0.151 and 0.358 and 0.09 and 0.215"},
      {"measurement": "μg EB per 100 g body weight", "setting": "[1]; quinagolide 50 μg/kg/day oral", "value": "10.84 μg EB per 100 g body weight and 2.847 μg EB per 100 g body weight and 9.144 μg EB per 100 g body weight and 22.95 μg EB per 100 g body weight and 5.267 μg EB per 100 g body weight and 12.5 μg EB per 100 g body weight"},
      {"measurement": "μg Evans Blue (Abs * 4360)", "setting": "[1]; quinagolide 50 μg/kg/day oral", "value": "780.44 µg and 209.28 µg and 658.36 µg and 1560.88 µg and 392.4 µg and 937.4 µg"},
      {"measurement": "Absorbance at 595 nm", "setting": "[2]; [3]", "value": "0.622 and 0.924 and 0.491 and 0.181 and 0.242 and 0.335"},
      {"measurement": "μg EB per 100 g body weight", "setting": "[2]; [3]", "value": "38.74 μg EB per 100 g body weight and 55.57 μg EB per 100 g body weight and 28.74 μg EB per 100 g body weight and 10.96 μg EB per 100 g body weight and 14.76 μg EB per 100 g body weight and 22.13 μg EB per 100 g body weight"},
      {"measurement": "μg Evans Blue (Abs * 4360)", "setting": "[2]; [3]", "value": "2711.92 µg and 4028.64 µg and 2140.76 µg and 789.16 µg and 1055.12 µg and 1460.6 µg"},
      {"measurement": "Absorbance at 595 nm", "setting": "[2]; [4]", "value": "0.03 and 0.036 and 0.1709 and 0.021 and 0.103 and 0.056"},
      {"measurement": "μg EB per 100 g body weight", "setting": "[2]; [4]", "value": "1.721 μg EB per 100 g body weight and 2.854 μg EB per 100 g body weight and 10.88 μg EB per 100 g body weight and 1.356 μg EB per 100 g body weight and 6.703 μg EB per 100 g body weight and 3.513 μg EB per 100 g body weight"},
      {"measurement": "μg Evans Blue (Abs * 4360)", "setting": "[2]; [4]", "value": "130.8 µg and 156.96 µg and 745.124 µg and 91.56 µg and 449.08 µg and 244.16 µg"},
      {"measurement": "Absorbance at 595 nm", "setting": "[2]; [5]", "value": "0.115 and 0.125 and 0.256 and 0.209 and 0.299 and 0.201"},
      {"measurement": "μg EB per 100 g body weight", "setting": "[2]; [5]", "value": "7.214 μg EB per 100 g body weight and 7.517 μg EB per 100 g body weight and 16.06 μg EB per 100 g body weight and 13.3 μg EB per 100 g body weight and 19.03 μg EB per 100 g body weight and 12.26 μg EB per 100 g body weight"},
      {"measurement": "μg Evans Blue (Abs * 4360)", "setting": "[2]; [5]", "value": "501.4 µg and 545 µg and 1116.16 µg and 911.24 µg and 1303.64 µg and 876.36 µg"}
    ]}
  ]
}
